Measurements reported in patent publication US5079257A, “Indoloquinone compounds” (priority 1986, dated 1992).
Read-outs that look alike come from different tables or passages of the source.

Columns and labels:
Assay type in all cases: cell-based
MCF7 breast cancer cells = assay: In vitro panel of human tumour lines (TNO): MCF-7; conditions: about 72 hours; note: key: -: no inhibition of cell growth; +: total cell-kill
Experimental: (§1) Compounds E.O. 1, E.O. 2, E.O. 4, E.O. 4A, E.O. 8, E.O. 9, […], E.O. 33, and E.O. 35 were tested for their activity against five human tumour cell lines at the Radiobiological Institute TNO Rijswijk.
(§2) The new in vitro prescreen uses human tumour clones; it was set up by Dr. P. Lelieveld at TNO Rijswijk and comprises testing compounds in a bioliquid assay for their cytostatic activity against the following five human tumour lines:
(§3) After a continuous exposure to the drugs to be tested and to Adriamycin in `24 well tissue culture clusters, type 3524 (Costar)`, the remaining cells are fixed and stained. Using increasing drug concentrations the inhibiting concentration can be estimated qualitatively.
(§4) Cells: the human tumour cells are maintained in Dulbecco's medium supplemented with 10 percent foetal calf serum.
(§5) M and W cell suspensions: 10^5 cells/ml.
(§6) The cells were grafted into 16 mm wells for 48 hours (0.5 ml cell suspension per well was used).
(§7) Drugs: the compound to be tested was dissolved in appropriate concentrations in a mixture of Hepes-buffered Hanks' balanced salt solution and ethanol. The drug solutions (0.05 ml) were added to the different wells. The final ethanol concentration in each well was less than one percent.
(§8) The cells were continuously incubated with the compound under test at 37° in an atmosphere of 10 percent CO2 in humidified air for about 72 hours.
(§9) Determination of the inhibiting dose: the cells were fixed and stained with a solution of crystal violet in methanol/formaldehyde.

IgR37 cells melanoma = assay: In vitro panel of human tumour lines (TNO): IgR-37; conditions: about 72 hours; note: key: -: no inhibition of cell growth; +: total cell-kill
Experimental: as §1, §2, §3, §4
(§10) A, T and Z cell suspensions: 5·10^4 cells/ml
as §6, §7, §8, §9

WiDr cells; colon tumour = assay: In vitro panel of human tumour lines (TNO): WiDr; conditions: about 72 hours; note: key: -: no inhibition of cell growth; +: total cell-kill
Experimental: as §1, §2, §3, §4, §5, §6, §7, §8, §9

[1] = tested on: T 24 cells; bladder carcinoma; assay: In vitro panel of human tumour lines (TNO): T 24; conditions: about 72 hours; note: key: -: no inhibition of cell growth; +: total cell-kill
Experimental: as §1, §2, §3, §4, §10, §6, §7, §8, §9

[2] = tested on: A 204 cells; rhabdomyosarcoma; assay: In vitro panel of human tumour lines (TNO): A 204; conditions: about 72 hours; note: key: -: no inhibition of cell growth; +: total cell-kill
Experimental: as §1, §2, §3, §4, §10, §6, §7, §8, §9

L1210 cells = assay: L1210 activity (bioliquid assay), cytotoxicity; conditions: for IC50: Mus musculus, L1210, Table I, bioliquid assay, 48 hours, read-out: ID-50 L1210; for ID-50 L1210: Table VI, 2880 min
Description: The indoloquinones II (formula II) have been tested in respect of their cytotoxic activity against L1210 cells and R-1 cells (Rhabdomyosarcoma Cells) in a bioliquid assay at the department of oncology of the Free University of Amsterdam (Table I). In addition to this seven compounds (E.O. 1, E.O. 2, E.O. 4, E.O. 7, E.O. 9, E.O. 16 and E.O. 17) have been tested on L1210 activity in a clonogenic assay at TNO, Rijswijk. Further, the lowest active doses of the compounds E.O. 1, E.O. 2, E.O. 4 and E.O. 9 have been determined at TNO Rijswijk, according to the method described by Lamberts et al. [Oncology, 40, 301 (1983)]. (Table II). Eight indoloquinones (E.O. 1, E.O. 2, E.O. 4, E.O. 4A, E.O. 8, E.O. 9, E.O. 33 and E.O. 35) have been tested in a panel of five human tumour lines (TNO Rijswijk; Table III). From the latter group three indoloquinones (E.O. 1, E.O. 4 and E.O. 9) have been selected for a cytotoxicity study, involving five slowly growing human tumour lines (University of Freiburg; Table IV).
For this purpose, L1210 cells were grown, as suspension, in Falcon multi-wells (growth area: 9.6 cm^2) using RPMI supplemented with 15% FCS and 2-mercapto-ethanol (60 μmol) as medium. In this medium, the cells were continuously incubated with the compound to be tested at 37° C. in an atmosphere of 5% CO2 in humidified air for 48 hours. Thereupon they were counted on a Sysmex microcell counter (CC110).
(§11) The in vitro L1210 and R-1 activities of the indoloquinones (formula III), were also determined in the bioliquid assays as described above.

[3] = tested on: R-1 cells (Rhabdomyosarcoma Cells); assay: R-1 activity (bioliquid assay), cytotoxicity; conditions: Rhabdomyosarcoma cell, read-out: ID-50 R-1
Description: The indoloquinones II (formula II) have been tested in respect of their cytotoxic activity against L1210 cells and R-1 cells (Rhabdomyosarcoma Cells) in a bioliquid assay at the department of oncology of the Free University of Amsterdam (Table I). […] (Table II). Eight indoloquinones (E.O. 1, E.O. 2, E.O. 4, E.O. 4A, E.O. 8, E.O. 9, E.O. 33 and E.O. 35) have been tested in a panel of five human tumour lines (TNO Rijswijk; Table III).
For the determination of the R-1 activity, Rhabdomyosarcoma cells were brought into Falcon multiwells (growth area: 9.6 cm^2) (~10^6 cells per dish) containing 3 ml of Dulbecco's medium supplemented with 10% Foeto Calf Serum (FCS). […] Thereupon the drug solution was removed and the cells were covered with fresh medium. After 48 hours the cells were trypsinized and counted on a Sysmex microcell counter (CC110).
as §11

SMILES	in vitro activity score, MCF-7 (MCF7 breast cancer cells; 1.0 μg/ml)	in vitro activity score, IgR-37 (IgR37 cells melanoma; 0.01 μg/ml)	in vitro activity score, IgR-37 (IgR37 cells melanoma; 0.1 μg/ml)	in vitro activity score, WiDr (WiDr cells; colon tumour; 0.01 μg/ml)	in vitro activity score, WiDr (WiDr cells; colon tumour; 0.1 μg/ml)	in vitro activity score, WiDr (WiDr cells; colon tumour; 1.0 μg/ml)	in vitro activity score, WiDr (WiDr cells; colon tumour; 10 μg/ml)	in vitro activity score, T 24 ([1]; 0.01 μg/ml)	in vitro activity score, T 24 ([1]; 0.1 μg/ml)	IC50 (L1210 cells) [µg/mL]	IC50 ([3]; Table I, bioliquid assay) [µg/mL]	ID-50 L1210 (L1210 cells) [µg/mL]	also measured
N.N.[Cl][Pt][Cl] [Cisplatin, reference compound]	-	-	-	-	-	-	+	-	-				in vitro activity score, MCF-7 (MCF7 breast cancer cells; 0.01 μg/ml): -; in vitro activity score, MCF-7 (MCF7 breast cancer cells; 0.1 μg/ml): -; in vitro activity score, IgR-37 (IgR37 cells melanoma; 10 μg/ml): +; in vitro activity score, T 24 ([1]; 10 μg/ml): +; in vitro activity score, A 204 ([2]; 0.01 μg/ml): -; in vitro activity score, A 204 ([2]; 0.1 μg/ml): -; in vitro activity score, A 204 ([2]; 10 μg/ml): +
CCNC1=CC(=O)c2c(c(COC(C)=O)c(/C=C/CO)n2C)C1=O [E.O. 59, 3-Acetoxymethyl-5-ethylamino-1-methyl-2-[1H-indole-4,7-dione]prop-β-en-α-ol]										> 10	> 10		
CC(=O)OC/C=C/c1c(COC(C)=O)c2c(n1C)C(=O)C=C(N1CCOCC1)C2=O [E.O. 60, 3-Acetoxymethyl-1-methyl-5-morpholino-2-[1H-indole-4,7-dione]prop-β-en-α-yl acetate]										> 10	3.3	> 10	
CC(=O)OCc1c2c(n(C)c1/C=C/CO)C(=O)C=C(NCCc1ccccn1)C2=O [E.O. 62, 3-Acetoxymethyl-1-methyl-5-[2-pyridylethyl-1-amino]-2-[1H-indole-4,7-dione]prop-β-en-α-ol]										> 10	> 10	> 10	IC50 ([3]; Table VI): > 10 µg/mL
CCC1(O)CC2CN(CCc3c([nH]c4ccccc34)C(C(=O)OC)(c3cc4c(cc3OC)N(C)C3C(O)(C(=O)OC)C(OC(C)=O)C5(CC)C=CCN6CCC43C65)C2)C1 (stereo not shown) [Vinblast., reference compound]	+	+	+	+	+	+	+		+				in vitro activity score, MCF-7 (MCF7 breast cancer cells; 10 μg/ml): +
CCC1(O)CC2CN(CCc3c([nH]c4ccccc34)C(C(=O)OC)(c3cc4c(cc3OC)N(C=O)C3C(O)(C(=O)OC)C(OC(C)=O)C5(CC)C=CCN6CCC43C65)C2)C1 (stereo not shown) [Vincrist., reference compound]		+	+	+	+			-	+				
